Results: ChEMBL document CHEMBL1268880, “Investigation of 4-piperidinols as novel H3 antagonists” (Bioorg Med Chem Lett, 2010)

Key:
Histamine H3 receptor [1] = target: Histamine H3 receptor (Mus musculus, UniProt P58406); assay: Antagonist activity against mouse histamine H3 receptor expressed in human HT1080 cells assessed as inhibition of (R)-alpha-methylhistamine-induced increase in intracellular calcium level by FLIPR assay; format: functional, cell-based, HT-1080
Histamine H3 receptor [2] = target: Histamine H3 receptor (Homo sapiens, UniProt Q9Y5N1); assay: Antagonist activity against human histamine H3 receptor expressed in human HT1080 cells assessed as inhibition of (R)-alpha-methylhistamine-induced increase in intracellular calcium level by FLIPR assay; format: functional, cell-based, HT-1080
Sequence of Histamine H3 receptor (Homo sapiens, UniProt Q9Y5N1) (Q9Y5N1 whole entry): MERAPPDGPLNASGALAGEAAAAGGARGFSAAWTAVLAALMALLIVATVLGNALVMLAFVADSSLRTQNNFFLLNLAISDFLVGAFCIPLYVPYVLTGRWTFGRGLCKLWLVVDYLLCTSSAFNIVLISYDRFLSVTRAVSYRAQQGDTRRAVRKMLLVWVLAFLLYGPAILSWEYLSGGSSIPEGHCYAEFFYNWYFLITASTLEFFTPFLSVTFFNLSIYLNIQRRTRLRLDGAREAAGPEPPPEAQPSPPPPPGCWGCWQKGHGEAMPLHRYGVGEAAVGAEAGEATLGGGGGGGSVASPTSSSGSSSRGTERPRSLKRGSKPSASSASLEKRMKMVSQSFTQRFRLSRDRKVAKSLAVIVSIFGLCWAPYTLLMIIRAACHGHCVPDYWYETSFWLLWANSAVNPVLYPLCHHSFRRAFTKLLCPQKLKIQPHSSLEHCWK

hERG (KCNH2) [3] = target: T1, hERG (KCNH2) (Homo sapiens, UniProt Q12809); assay: Inhibition of human ERG at 10 uM
T1 sequence (Q12809 whole entry): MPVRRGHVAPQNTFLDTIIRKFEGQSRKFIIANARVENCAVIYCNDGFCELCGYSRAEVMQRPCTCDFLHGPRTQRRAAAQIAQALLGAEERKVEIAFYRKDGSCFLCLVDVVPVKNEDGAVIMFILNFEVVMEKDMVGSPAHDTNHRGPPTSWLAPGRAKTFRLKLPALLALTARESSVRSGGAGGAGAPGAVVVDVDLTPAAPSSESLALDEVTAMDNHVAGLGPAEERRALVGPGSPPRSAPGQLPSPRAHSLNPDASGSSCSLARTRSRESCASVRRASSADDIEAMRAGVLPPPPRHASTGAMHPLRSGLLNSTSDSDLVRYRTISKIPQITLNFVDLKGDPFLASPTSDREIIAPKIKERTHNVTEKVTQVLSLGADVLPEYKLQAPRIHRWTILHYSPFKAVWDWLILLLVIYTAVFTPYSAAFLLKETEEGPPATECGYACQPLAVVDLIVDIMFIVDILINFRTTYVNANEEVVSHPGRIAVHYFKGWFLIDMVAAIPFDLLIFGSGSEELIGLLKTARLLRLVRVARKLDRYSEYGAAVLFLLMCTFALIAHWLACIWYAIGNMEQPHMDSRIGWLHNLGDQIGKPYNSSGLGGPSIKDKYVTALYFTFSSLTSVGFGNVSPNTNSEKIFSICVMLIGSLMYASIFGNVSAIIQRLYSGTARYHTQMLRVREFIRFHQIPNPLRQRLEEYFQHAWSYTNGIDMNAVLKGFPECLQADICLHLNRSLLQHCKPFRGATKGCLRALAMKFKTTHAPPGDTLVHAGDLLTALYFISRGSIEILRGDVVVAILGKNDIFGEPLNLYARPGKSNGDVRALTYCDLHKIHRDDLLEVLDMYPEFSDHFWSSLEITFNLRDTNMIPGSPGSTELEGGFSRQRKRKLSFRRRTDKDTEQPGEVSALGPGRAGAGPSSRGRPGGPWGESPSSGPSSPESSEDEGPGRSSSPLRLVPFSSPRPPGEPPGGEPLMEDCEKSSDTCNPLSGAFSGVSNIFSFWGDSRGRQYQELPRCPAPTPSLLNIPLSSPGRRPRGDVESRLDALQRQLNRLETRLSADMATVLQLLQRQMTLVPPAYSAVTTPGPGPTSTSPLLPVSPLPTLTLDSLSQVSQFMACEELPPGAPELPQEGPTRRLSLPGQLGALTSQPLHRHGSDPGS

[4] = Selectivity ratio of IC50 for mouse histamine H3 receptor to IC50 for human histamine H3 receptor
hERG (KCNH2) [5] = target: T1, hERG (KCNH2); assay: Inhibition of human ERG at 50 uM

Sequence of Histamine H3 receptor (Mus musculus, UniProt P58406) (P58406 whole entry): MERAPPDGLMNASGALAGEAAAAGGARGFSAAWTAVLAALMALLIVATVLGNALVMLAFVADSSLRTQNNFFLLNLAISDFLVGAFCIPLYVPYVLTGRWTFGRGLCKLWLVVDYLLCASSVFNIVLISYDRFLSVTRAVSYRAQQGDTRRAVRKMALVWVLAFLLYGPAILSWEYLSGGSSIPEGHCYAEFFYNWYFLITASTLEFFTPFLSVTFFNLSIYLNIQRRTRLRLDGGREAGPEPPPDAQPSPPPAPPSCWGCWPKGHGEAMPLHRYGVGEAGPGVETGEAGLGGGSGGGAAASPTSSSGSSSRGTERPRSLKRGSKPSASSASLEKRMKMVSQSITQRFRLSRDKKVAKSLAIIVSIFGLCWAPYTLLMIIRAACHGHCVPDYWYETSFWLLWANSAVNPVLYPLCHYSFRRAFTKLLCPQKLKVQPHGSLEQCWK

Compound | IC50 (Histamine H3 receptor [1]) | IC50 (Histamine H3 receptor [2]) | Ratio IC50 [4] | inhibition at 10 µM (hERG (KCNH2) [3]) | inhibition at 50 µM (hERG (KCNH2) [5])
CC1CC(O)(/C=C/c2cccc3ccccc23)C(C)CN1C (racemic) | 570 nM | 20 nM |  | 20% | 
C[C@@H]1C[C@@](O)(CCc2cccc3ccccc23)[C@@H](C)CN1C | 85 nM | 2 nM |  | 16% | 
CC1CC(O)(CCc2ccc3ccccc3c2)C(C)CN1C (racemic) | 122 nM | 2 nM |  | 0% | 
CC1CC(O)(CCc2cccc3ccccc23)C(C)CN1C (racemic) | 480 nM | 17 nM |  | 15% | 
CC(=O)OC1(C#Cc2cccc3ccccc23)CC(C)N(C)CC1C (racemic) | > 10000 nM | 5510 nM |  |  | 
NC(=NCc1ccc(Cl)cc1)SCCCc1cnc[nH]1 [CLOBENPROPIT] | 1 nM |  |  |  | 
CC1CN2CCCC2CC1(O)CCc1cccc2ccccc12 (racemic) | 345 nM | 14 nM |  |  | 
CC1CN2CCCC2CC1(O)C#Cc1cccc2ccccc12 (racemic) | 280 nM | 5 nM |  | 23% | 
CC1CC(O)(C#Cc2ccc3ccccc3c2)C(C)CN1C (racemic) | 810 nM | 84 nM |  |  | 

Further lines, with some results ahead:

IC50 (Histamine H3 receptor [1]) | IC50 (Histamine H3 receptor [2]) | Ratio IC50 [4] | Compound | inhibition at 10 µM (hERG (KCNH2) [3]) | inhibition at 50 µM (hERG (KCNH2) [5])
119 nM | 9 nM | 13 | C[C@@H]1C[C@@](O)(C#Cc2cccc3ccccc23)[C@@H](C)CN1C |  | 15%
1320 nM | 41 nM |  | C[C@@H]1CN(C)[C@@H](C)C[C@]1(O)C#Cc1cccc2ccccc12 |  | 
690 nM | 12 nM |  | CC1CC(O)(C#Cc2cccc3ncccc23)C(C)CN1C (racemic) | 3% | 
9730 nM | 709 nM |  | CC1CC(O)(C#Cc2cccc3cccnc23)C(C)CN1C (racemic) |  | 
280 nM | 11 nM |  | CC1CC(O)(C#Cc2cccc3ccccc23)C(C)CN1C (racemic) |  | 
